Measurements reported in patent US20030077653A1, “Method for the identification of active site protease inactivators” (The University of Georgia Research Foundation, Inc., priority 2000, published 2003).
Entries after “also recorded” stand apart in the source; their conditions may differ. Starred links: 1 amine or outer side, 2 acyl side, 3 side chain; linkers in the order of their positions; H or OH if unused. Residues, ends and D or L forms follow the SMILES beside them. *: point of attachment. AFC = O=c1cc(C(F)(F)F)c2ccc(N*)cc2o1; Morpholide = C1CN(*)CCO1; Cbz = O=C(OCc1ccccc1)*; CO = O=C([*:1])[*:2]; CH2F = FC*

Assays:
[1] = tested on: purified Taenia solium cysteine protease; assay: Screen of AFC-linked synthetic substrates for cleavage (Step II); assay type: biochemical; details: pH 4.9, 18 h, 37° C
Experimental: In this step, the most efficacious substrate for detection of the cysteine protease (high Kcat substrate) was determined in vitro along with those substrates which were not well cleaved (low kcat substrates). From this point forth, the following conditions refer to all assays: “assay buffer” refers to 0.4 M Citrate, pH 4.9 (the pH optima of the protease). Incubation time was 18 hours at 37° C. These conditions were determined by our preliminary data to be best for kinetic evaluation of the protease. […] The experiments were conducted in […] Borosilicate mini-culture tubes (Fisher Scientific), and a fluorometer (Turner) was employed for detection of AFC cleavage.
Approximately 1 ug (or a proteolytically detectable amount) of the purified target cysteine protease was incubated individually, with 1 μg of each of the available substrates in 500 μL of assay buffer. During this setup, the substrate was pre-incubated in the assay buffer for a short period of time (20 minutes) in order to reach an equilibrated status before the addition of the protease. Cleavage assessments were based upon the property of the protease to cleave synthetic peptide substrates linked at the C-terminus to 7-Amino-4-Trifluoromethyl Coumarin (AFC) as previously described. AFC linked tripeptides, dipeptides, and monopeptides, (with a variety of permutations at P3-P1) were available from Enzyme Systems Products (Livermore, CA), and were used as the source of the subset. Following incubation of enzyme preparations overnight (18 h, 37 ° C.) with peptide in assay buffer (Citrate, pH 4.9, supplemented with 0.01 M cysteine), free AFC concentrations were measured fluorometrically (excitation […]). The proteolytic cleavage released the AFC group, which was measurable as a free molecule by a standard fluorometer and converted into molar quantities, based upon a previously established standard curve. The simplicity of AFC detection by the fluorometer was a key factor which quickened and simplified the procedures.
In the assay, 1 ug of the purified Taenia cysteine protease was added to a saturating amount of Z-Phe-Arg-AFC (4×10^−5 M) in assay buffer. The experiment was conducted in triplicate and repeated at least 5 times until we were certain that variability in AFC cleavage was not statistically significant.
Vmax was calculated for the cleavage of substrates by the purified target protease and Vmax was calculated for substrates cleaved by the crude mix protease using conventional kinetic modeling calculations already described in the art.

[2] = Observation of side effects in treated mice; assay type: in vivo; details: BALB/c mice; for side effects in mice, long-term study: 30 days treatment, 5 months follow-up
Experimental: FIG. 8. […] Each treated mouse was pre-injected intraperitoneally with inhibitor for two days. During treatment phase, each treated mouse received 1.48×10^−2 μg/μl of N2 daily for three weeks and every other day during the last week. Injections were carried out in 150 μl of dimethyl sulfoxide for each mouse. Both treated groups and positive controls were challenged intraperitoneally with 10 Taenia crassiceps cysts in 200 μl 0.15M PBS at the time of initial infection. After one month of infection, both groups were euthanized and cysts removed by washing with sterile 0.15M PBS. A minimum of two attached cysts were scored as multilobed (ML). […] (B) Graphically represents the effect of protease inhibitor treatment of BALB/c mice challenged with Taenia crassiceps cysts over a long-term period. Mice were divided into treated and untreated groups (5 mice/group).Each mouse in the treated group was pre-injected intraperitoneally with inhibitor for two days. Subsequently, all groups were challenged with 10 T. crassiceps cysts in 200 μl of 0.15M PBS. Treatment with inhibitor or placebo (0.15M PBS) was carried out every day for 30 days post-challenge. Cysts were left alone (untreated) for 5 months, and then euthanized. Cysts were then counted by visual inspection. Percent protection is based on the reduction of the total cyst number in comparison to control mice, which never received any treatment.
Mice in all groups survived without noticeable side effects (e.g., coat condition, tail dragging or paresis, etc).
Long-term studies were also conducted to determine over how long a period these inhibitors would maintain a protective effect. In a representative experiment shown here, mice were divided into treated and untreated groups (5 mice/group). Each mouse in the treated group was pre-injected intraperitoneally with inhibitor for two days. Subsequently, all groups were challenged with 10 T. crassiceps cysts in 200 μl 0.1 5M PBS. Treatment with inhibitor or placebo (0. 15M PBS) was carried out every day for 30 days post- challenge. […] Cysts were then counted by visual inspection. […]

[3] = tested on: Taenia crassiceps cysts; assay: Scanning electron microscopy of surfaces of cysts removed from treated mice; assay type: in vivo
Text: FIG. 9. Scanning electron microscopy of the surface of cysts removed from untreated mice versus cysts removed from treated mice. Magnifications are identical for both slides in each panel. panel A (4000×). […] No immune cells were seen on cysts removed from untreated mice. Panel B (25,000×). […] Microtriches in untreated cysts can be seen to be visibly longer. Visible anchors were also noted for the untreated cysts group, whereas these anchors were not observed in microtriches from treated cysts.
For example, we hypothesized that the cysteine protease was a key parasitic molecule to allow the cyst to evade the host immune response, by cleaving host antibodies. By inhibiting the Taenia cysteine protease with Z-LLY-FMK, we hypothesized that host immunoglobulin could now bind the parasites, and initiate immunological responses (e.g., complement via IgG2a) which would cause damage to the cyst wall. […] We identified macrophages, neutrophils, fibroblasts, and collagenous deposits on the cyst surfaces from treated mice, in comparison to their absence on cysts from untreated mice. General surface atrophy was also apparent. […] Breaks in the integrity of the cyst surface were also noted for the cysts removed from treated mice. […] Cysts removed from untreated mice were characterized by no immune cells, intact and longer microtriches, and homogeneity of the cyst surface.

Row | SMILES | cleavage as substrate (Vmax) [1] | side effects in mice, long-term study [2] | Immune cells observed by SEM on cyst surfaces [3] | side effects / inhibitor toxicity in mice, short-term studies ([2]; one month, visual inspection)
1 | CC(C)C[C@H](NC(=O)N1CCOCC1)C(=O)N[C@@H](Cc1ccc(O)cc1)C(=O)Nc1ccc2c(C(F)(F)F)cc(=O)oc2c1 [Mu-LY-AFC, Mu-Leu-Tyr-AFC] ({Morpholide-CO}-Leu-Tyr-{AFC}) | noncleavable |  |  | 
2 | CC(C)C[C@H](NC(=O)[C@H](CC(C)C)NC(=O)[C@H](CC(C)C)NC(=O)OCc1ccccc1)C(=O)CF [Z-LLL-FMK, Z-Leu-Leu-Leu-fluoromethylketone] (Cbz-Leu-Leu-Leu-CH2F) |  | no side effects |  | 
3 | CC(C)C[C@H](NC(=O)OCc1ccccc1)C(=O)N[C@@H](CC(C)C)C(=O)N[C@@H](Cc1ccc(O)cc1)C(=O)CF [Z-LLY-FMK, Z-Leu-Leu-Tyr-FMK] (Cbz-Leu-Leu-Tyr-CH2F) |  | no side effects | vigorous host immune response; also recorded: presence of adherent immune cells; also recorded: Intense | no mice showed effects of inhibitor toxicity
